According to patent publication US20120121692A1, “COMPOUNDS AND COMPOSITIONS COMPRISING CDK INHIBITORS AND METHODS FOR TREATING CANCER” (SHANDONG UNIVERSITY, priority 2009, published 2012):
Read-outs that look alike come from different tables or passages of the source.

How the values were obtained:
HCT116 cells = test: MTT cytotoxicity screening, human colon cancer cell line HCT116; type: cell-based; settings: Homo sapiens
Excerpt: Human colon cancer cell line HCT116 can be used for the preliminary cytotoxicity screening of the disclosed compounds as disclosed by Mosmann, T., “Rapid colorimetric assay for cellular growth and survival: application to proliferation and cytotoxicity assays.” J. Immunol. Methods, (1983) 65(1-2): p. 55-63 referred to herein further as the “MTT test” which is incorporated herein by reference in its entirety.
The disclosure of Mosmann recites the following. “MTT 93-(4,5-dimethylthirazol-2-yl)-2,5-diphenyl tetrazolium bromide; Sigman catalog no. M2128) was dissolved in PBS at 5 mg/ml and filtered to sterilize and remove a small amount of insoluble residue present in some batches of MTT. At the times indicated below, stock MTT solution (10 ml per 100 ml) was added to all wells of an assay, and plates were incubated at 37° C. for 4 h. Acid-siopropanol (100 ml of 0.04 N HCl in isopropanol) was added to all wells and mixed thoroughly to dissolve the dark blue crystals. After a few minutes at room temperature to ensure that all crystals were dissolved, the plates were read o a Dynatech MR580Microelisa reader, using a test wavelength of 570 nm, a reference wavelength of 630 nm, and a calibration setting of 1.99 (or 1.0 if the samples were strongly colored). Plates were normally read within 1 h of adding the isopropanol.
“Our final procedure was to add 0.01 ml MTT (5 mg/ml in phosphate-buffered saline) to 0.1 ml cells in growth medium. After 4 h at 37° C. for MTT cleavage, the formazan product was solublilized by the addition of 0.1 ml 0.04 N HCl in isopropanol. Optical density was measured on a Dynatech MR 580 plate reader, using a reference wavelength of 630 nm and a test wavelength of 570 nm.” 3-(4,5-Dimethylthiazol-2-yl)-2,5-diphenyltetrazolium bromide, a tetrazole, can pass through cellular membrane to enter into cells. This tetrazole may be reduced to the purple formazan in the mitochondria of living cells, which can diffuse out to form crystals. This crystal can be dissolved in the dimethyl sulfoxide to form a colored solution. The absorbance of this colored solution can be quantified by measuring at certain wavelength (490 nm) using a spectrophotometer. The quantity of the formazan crystal is proportional to the number of living cells.
As used herein, cells were cultured in McCoy's 5A medium supplemented with 10% heat-inactivated Fetal Bovine Serum (FBS) and 5% Penicillin/Streptomycin solution. McCoy's 5A, 1× (Iwakata & Grace modified) medium with L-Glutamine, DPBS, 1× w/o Ca and Mg, Penicillin/Streptomycin solution, Trypsin EDTA, 1× and PBS, 1× w/o Ca and Mg were purchased from Mediatech, Inc. (USA). FBS was purchased from Hyclone (USA).
The cytotoxicity of the compounds was estimated using the MTT assay. A 96-well plate was seeded with 100 μl medium containing HCT116 cells in suspension at a density of 2.5×10^4 cells/ml. After 24 hours of incubation, the cells were treated with the compounds, which were dissolved in DMSO (dimethyl sulfoxide) as stock solutions and diluted to final concentrations of 100 μM, 50 μM, 25 μM, 12.5 μM, 6.25 μM & 1 μM (for compounds tested in the micromolar concentrations) and 10 μM, 1 μM, 500 nM, 250 nM, 125 nM & 62.5 nM (for compounds tested in the nanomolar concentration range) using medium containing 0.1% DMSO. The final concentration of DMSO in the culture medium was maintained at 0.1%-0.001% (v/v). After 48 hrs incubation in the presence of test compounds, the spent medium was removed and the wells were washed twice with 100 μL of PBS solution. 100 μL of fresh medium and 10 μL of MTT (5 mg/ml in PBS) was added to the wells and incubated at 37° C. in dark for 4 hrs. The formazan product was dissolved by adding 100 μL of 100% DMSO after removing the medium from each well and was stabilized by adding 12.5 μL of Sorensen's glycine buffer to each well. […]

[1] = HCT-116, 48 hrs incubation, absorbance 490 nm, primary screening, read-out: IC50

| Compound | IC50 (HCT116 cells; [1]) | melting point | IC50 (HCT116 cells; HCT-116, further evaluated after secondary screening (Table VIII), read-out: IC50 value) |
| --- | --- | --- | --- |
| COc1cc(OC)c(C2=CCNCC2)c(O)c1C(=O)/C=C/c1cccc(Cl)c1 [Compound B7, (E)-3-(3-chlorophenyl)-1-(2-hydroxy-4,6-dimethoxy-3-(1,2,3,6-tetrahydropyridine-4-yl)phenyl)-2-propylene-1-one] | 9.97 µM | 102 to 103 °C | – |
| COc1cc(OC)c(C2=CCNCC2)c(O)c1C(=O)/C=C/c1ccc(C#N)cc1 [Compound B15, (E)-3-(4-cyanophenyl)-1-(2-hydroxy-4,6-dimethoxy-3-(1,2,3,6-tetrahydropyridine-4-yl)phenyl)-2-propylene-1-one] | 7.3 µM | 135 to 136 °C | – |
| COc1cc(OC)c(C2=CCNCC2)c(O)c1C(=O)/C=C/c1ccccc1[N+](=O)[O-] [Compound B3, (E)-1-(2-hydroxy-4,6-dimethoxy-3-(1,2,3,6-tetrahydropyridine-4-yl)phenyl)-3-(2-nitrophenyl)-2-propylene-1-one] | 5.68 µM | 128 to 130 °C | – |
| COc1cccc(/C=C/C(=O)c2c(OC)cc(OC)c(C3=CCN(C)CC3)c2O)c1OC [Compound A4, (E)-3-(2,3-dimethoxyphenyl)-1-(2-hydroxy-4,6-dimethoxy-3-(1-methyl-1,2,3,6-tetrahydropyridine-4-yl)phenyl)-2-propylene-1-one] | 5.22 µM | 171 to 172 °C | > 1 µM |
| COc1cc(OC)c(C2=CCN(C)CC2)c(O)c1C(=O)/C=C/c1ccc(Br)cc1 [Compound A13, (E)-3-(4-bromophenyl)-1-(2-hydroxy-4,6-dimethoxy-3-(1-methyl-1,2,3,6-tetrahydropyridine-4-yl)phenyl)-2-propylene-1-one] | 8.76 µM | 164 to 165 °C | – |
| COc1cc(OC)c(C2=CCNCC2)c(O)c1C(=O)/C=C/c1ccc(O)cc1 [Compound B11, (E)-1-(2-hydroxy-4,6-dimethoxy-3-(1,2,3,6-tetrahydropyridine-4-yl)phenyl)-3-(4-hydroxyphenyl)-2-propylene-1-one] | 4.03 µM | 109 to 110 °C | – |
| COc1cc(OC)c(C2=CCN(C)CC2)c(O)c1C(=O)/C=C/c1ccco1 [Compound E1, (E)-3-(furan-2-yl)-1-(2-hydroxy-4,6-dimethoxy-3-(1-methyl-1,2,3,6-tetrahydro-pyridine-4-yl)phenyl)-2-propylene-1-one] | 10.2 µM | 145 to 146 °C | – |
| Cc1ccc(-c2cc(=O)c3c(O)cc(O)c(C4=CCN(C)CC4)c3o2)cc1 [Compound G3, 5,7-hydroxy-8-(1-methyl-1,2,3,6-tetrahydropyridin-4-yl)-2-(4-methylphenyl)-4H-chromen-4-one] | 3.42 µM | 160 to 161 °C | – |
| COc1cc(/C=C/C(=O)c2c(OC)cc(OC)c(C3=CCNCC3)c2O)cc(OC)c1OC [Compound B17, (E)-1-(2-hydroxy-4,6-dimethoxy-3-(1,2,3,6-tetrahydropyridine-4-yl)phenyl)-3-(3,4,5-trimethoxyphenyl)-2-propylene-1-one] | 4.2 µM | 124 to 125 °C | – |
| COc1cc(/C=C/C(=O)c2c(OC)cc(OC)c(C3=CCN(C)CC3)c2O)cc(OC)c1OC [Compound A17, (E)-1-(2-hydroxy-4,6-dimethoxy-3-(1-methyl-1,2,3,6-tetrahydropyridine-4-yl)phenyl)-3-(3,4,5-trimethoxyphenyl)-2-propylene-1-one] | 18.4 µM | 156 to 158 °C | – |
| COc1cc(OC)c(C2=CCNCC2)c(O)c1C(=O)/C=C/c1cccc(C)c1 [Compound B5, (E)-1-(2-hydroxy-4,6-dimethoxy-3-(1,2,3,6-tetrahydropyridine-4-yl)phenyl)-3-(3-methylphenyl)-2-propylene-1-one] | 6.13 µM | 95 to 96 °C | – |
| COc1cc(OC)c(C2=CCNCC2)c(O)c1C(=O)/C=C/c1ccco1 [Compound E2, (E)-3-(furan-2-yl)-1-(2-hydroxy-4,6-dimethoxy-3-(1,2,3,6-tetrahydropyridin-4-yl)phenyl)-2-propylene-1-one] | 11.1 µM | 119 to 120 °C | – |
| COc1cc(OC)c(C2=CCN(C)CC2)c(O)c1C(=O)/C=C/c1cccc(C)c1 [Compound A5, (E)-1-(2-hydroxy-4,6-dimethoxy-3-(1-methyl-1,2,3,6-tetrahydropyridine-4-yl)phenyl)-3-meta-methylphenyl-2-propylene-1-one] | 8.89 µM | 165 to 166 °C | – |
| COc1ccc(/C=C/C(=O)c2c(OC)cc(OC)c(C3=CCNCC3)c2O)cc1 [Compound B10, (E)-1-(2-hydroxy-4,6-dimethoxy-3-(1,2,3,6-tetrahydropyridine-4-yl)phenyl)-3-(4-methoxyphenyl)-2-propylene-1-one] | 11.4 µM | 90 to 91 °C | – |
| COc1cc(OC)c(C2=CCNCC2)c(O)c1C(=O)/C=C/c1ccc(Br)cc1 [Compound B13, (E)-3-(4-bromophenyl)-1-(2-hydroxy-4,6-dimethoxy-3-(1,2,3,6-tetrahydropyridine-4-yl)phenyl)-2-propylene-1-one] | 18.2 µM | 120 to 121 °C | – |
| COc1cc(OC)c(C2=CCN(C)CC2)c(O)c1C(=O)/C=C/c1ccccc1Cl [Compound A2, (E)-3-(2-chlorophenyl)-1-(2-hydroxy-4,6-dimethoxy-3-(1-methyl-1,2,3,6-tetrahydropyridine-4-yl)phenyl)-2-propylene-1-one] | 28.3 µM | 184 to 185 °C | – |
| COc1cc(-c2cc(=O)c3c(OC)cc(OC)c(C4=CCN(C)CC4)c3o2)cc(OC)c1OC [Compound F8, 5,7-dimethoxy-8-(1-methyl-1,2,3,6-tetrahydropyridin-4-yl)-2-(3,4,5-trimethoxy-phenyl)-4H-chromen-4-one] | 25.9 µM | 211 to 212 °C | – |
| COc1cc(OC)c(C(=O)/C=C/c2ccco2)c(O)c1CN1CCOCC1 [Compound E32, (E)-3-(furan-2-yl)-1-(2-hydroxy-4,6-dimethoxy-3-(morpholin-4-ylmethyl)phenyl)-2-propylene-1-one] | 45.7 µM | 147 to 148 °C | – |
| COc1cc(OC)c(C2=CCNCC2)c(O)c1C(=O)/C=C/c1ccc(N(C)C)cc1 [Compound B14, (E)-3-(4-dimethylaminophenyl)-1-(2-hydroxy-4,6-dimethoxy-3-(1,2,3,6-tetrahydropyridine-4-yl)phenyl)-2-propylene-1-one] | 32 µM | 127 to 128 °C | – |
| COc1ccc(-c2cc(=O)c3c(OC)cc(OC)c(C4=CCN(C)CC4)c3o2)c(OC)c1OC [Compound F7, 5,7-dimethoxy-8-(1-methyl-1,2,3,6-tetrahydropyridin-4-yl)-2-(2,3,4-trimethoxy-phenyl)-4H-chromen-4-one] | 9.17 µM | 209 to 210 °C | – |
| COc1cc(OC)c(C(=O)/C=C/c2ccco2)c(O)c1CN1CCCCC1 [Compound E31, (E)-3-(furan-2-yl)-1-(2-hydroxy-4,6-dimethoxy-3-(piperidine-1-ylmethyl)phenyl)-2-propylene-1-one] | 8.52 µM | 95 to 96 °C | – |
| COc1cc(OC)c(C2=CCNCC2)c(O)c1C(=O)/C=C/c1ccc(Cl)cc1 [Compound B12, (E)-3-(4-chlorophenyl)-1-(2-hydroxy-4,6-dimethoxy-3-(1,2,3,6-tetrahydropyridine-4-yl)phenyl)-2-propylene-1-one] | 4.82 µM | 93 to 94 °C | – |
